SMILES strings stand for the structures.

The values that follow come from patent publication US8501936B2 (priority 2009, dated 2013).

The target in one test is human JAK2 (Homo sapiens (Human), UniProt O60674). Particulars: read-out: JAK2 IC50.
Another test has as its target human FAK (Homo sapiens (Human), UniProt Q05397). The conditions noted are these: read-out: FAK IC50.

Chain of human JAK2 (O60674 815-1132): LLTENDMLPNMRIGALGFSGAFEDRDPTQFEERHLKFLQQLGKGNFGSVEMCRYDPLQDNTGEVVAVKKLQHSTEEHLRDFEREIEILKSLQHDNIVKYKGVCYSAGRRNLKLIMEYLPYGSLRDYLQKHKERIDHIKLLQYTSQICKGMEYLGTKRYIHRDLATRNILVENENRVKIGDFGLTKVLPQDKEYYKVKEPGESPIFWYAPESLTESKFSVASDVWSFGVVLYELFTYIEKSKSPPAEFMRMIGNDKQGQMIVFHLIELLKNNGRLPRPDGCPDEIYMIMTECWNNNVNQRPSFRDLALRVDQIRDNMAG
Chain of human FAK (Q05397 whole entry): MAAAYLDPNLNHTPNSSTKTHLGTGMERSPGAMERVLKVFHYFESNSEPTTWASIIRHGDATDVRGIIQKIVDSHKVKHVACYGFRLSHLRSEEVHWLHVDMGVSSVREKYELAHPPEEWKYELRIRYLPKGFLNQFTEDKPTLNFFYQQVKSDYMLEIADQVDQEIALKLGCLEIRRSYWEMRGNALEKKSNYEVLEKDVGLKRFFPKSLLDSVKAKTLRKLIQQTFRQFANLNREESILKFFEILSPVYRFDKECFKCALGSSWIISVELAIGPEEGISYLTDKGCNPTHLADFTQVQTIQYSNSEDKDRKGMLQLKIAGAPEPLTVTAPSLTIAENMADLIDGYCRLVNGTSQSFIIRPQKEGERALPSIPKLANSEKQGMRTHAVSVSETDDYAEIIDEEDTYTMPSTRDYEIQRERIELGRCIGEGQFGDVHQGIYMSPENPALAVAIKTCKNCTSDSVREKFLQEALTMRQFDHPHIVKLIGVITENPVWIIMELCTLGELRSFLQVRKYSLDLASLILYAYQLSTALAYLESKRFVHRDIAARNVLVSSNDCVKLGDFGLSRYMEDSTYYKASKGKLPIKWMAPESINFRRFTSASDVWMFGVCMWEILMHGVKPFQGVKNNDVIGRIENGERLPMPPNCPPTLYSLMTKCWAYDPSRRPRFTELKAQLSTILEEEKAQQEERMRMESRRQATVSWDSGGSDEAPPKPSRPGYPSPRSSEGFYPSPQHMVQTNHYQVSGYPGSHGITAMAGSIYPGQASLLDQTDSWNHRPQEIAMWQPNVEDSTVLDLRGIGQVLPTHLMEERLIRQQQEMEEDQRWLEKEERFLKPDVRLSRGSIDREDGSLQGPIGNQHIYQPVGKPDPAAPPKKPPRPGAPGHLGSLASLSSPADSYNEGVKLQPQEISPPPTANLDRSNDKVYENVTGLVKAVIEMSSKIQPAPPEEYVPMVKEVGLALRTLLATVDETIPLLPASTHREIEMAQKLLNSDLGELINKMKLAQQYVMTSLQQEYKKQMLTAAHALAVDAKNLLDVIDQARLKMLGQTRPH

Take `C[C@@H](O)CN1CCN(c2cccc(Nc3nc4c(-c5ccc(S(C)(=O)=O)cc5)cccn4n3)c2)CC1` [Example 143, (R)-1-(4-{3-[8-(4-Methanesulfonyl-phenyl)-[1,2,4]triazolo[1,5-a]pyridin-2-ylamino]-phenyl}-piperazin-1-yl)-propan-2-ol]: the figures for the half-maximal inhibitory concentration (IC50) on human JAK2 and on human FAK were 1.13 nM and 1990 nM, respectively.
With `CC(C)(C)OC(=O)N1CCC(n2cc(Nc3nc4c(-c5ccc(S(C)(=O)=O)cc5)cccn4n3)cn2)CC1` [Example 212, 4-{4-[8-(4-Methanesulfonyl-phenyl)-[1,2,4]triazolo[1,5-a]pyridin-2-ylamino]-pyrazol-1-yl}-piperidin-1-carboxylic acid tert-butyl ester], the IC50 (commonly the concentration that gives 50% inhibition) stood at 0.5 nM at human JAK2 and 3000 nM on human FAK.
Consider `CS(=O)(=O)c1ccc(-c2cccn3nc(Nc4ccc(CN5CCS(=O)(=O)CC5)cc4)nc23)cc1` [Example 114, N-{4-[(1,1-dioxidothiomorpholin-4-yl)methyl]phenyl}-8-[4-(methylsulfonyl)phenyl][1,2,4]triazolo[1,5-a]pyridin-2-amine], for which the IC50 was found to be 0.75 nM at human JAK2 and 1480 nM at human FAK.
Consider `CN1CCN(c2ccc(Nc3nc4c(NCc5ccccc5CN(C)S(C)(=O)=O)cccn4n3)cc2)CC1` [Example 156, N-Methyl-N-[2-({2-[4-(4-methyl-piperazin-1-yl)-phenylamino]-[1,2,4]triazolo[1,5-a]pyridin-8-ylamino}-methyl)-benzyl]-methanesulfonamide], for which the IC50 on human JAK2 stood at 35.4 nM; on human FAK it was 179 nM.
For `COc1ccc(C(F)(F)F)cc1-c1cccn2nc(Nc3ccc4c(c3)CCN(CC(=O)N(C)C)CC4)nc12` [Example 317, 2-{7-[8-(2-Methoxy-5-trifluoromethyl-phenyl)-[1,2,4]triazolo[1,5-a]pyridin-2-ylamino]-1,2,4,5-tetrahydro-3-benzazepin-3-yl}-N,N-dimethyl-acetamide], the half-inhibitory concentration (IC50) is 54.5 nM on human JAK2 and 2000 nM on human FAK.
On to `CN(C)C(=O)CN1CCc2ccc(Nc3nc4c(-c5cccc6c5OC(F)(F)O6)cccn4n3)cc2CC1` [Example 248, 2-(7-[8-(2,2-difluoro-1,3-benzodioxol-4-yl)-[1,2,4]triazolo[1,5-a]pyridin-2-yl-amino]-1,2,4,5-tetrahydro-3-benzazepin-3-yl)-N—N-dimethyl-acetamide], for which the IC50 turned out to be 30.4 nM at human JAK2 and 1700 nM on human FAK.
Consider `CN1CCN(c2ccc(Nc3nc4c(NCC5CCN(C(=O)OC(C)(C)C)C5)cccn4n3)cc2)CC1` (stereo not drawn) [Example 163, 3-({2-[4-(4-Methyl-piperazin-1-yl)-phenylamino]-[1,2,4]triazolo[1,5-a]pyridin-8-ylamino}-methyl)-pyrrolidine-1-carboxylic acid tert-butyl ester], for which the figures for the IC50 on human JAK2 and at human FAK were 98 nM and 10000 nM, respectively.
Consider `CN1CCC(c2ccc(Nc3nc4c(Nc5cccnc5N(C)S(C)(=O)=O)cccn4n3)cc2)CC1` [Example 133, N-Methyl-N-(3-{2-[4-(1-methyl-piperidin-4-yl)-phenylamino]-[1,2,4]triazolo[1,5-a]pyridin-8-ylamino}-pyridin-2-yl)-methanesulfonamide], for which the results for the concentration for half-maximal inhibition (IC50) on human JAK2 and at human FAK were 17.4 nM and 2070 nM, respectively.
`CS(=O)(=O)c1ccc(-c2cccn3nc(Nc4ccc5c(c4)CCC(N4CCOCC4)CC5)nc23)cc1` (stereo not drawn) [Example 145, [8-(4-Methanesulfonyl-phenyl)-[1,2,4]triazolo[1,5-a]pyridin-2-yl]-(7-morpholin-4-yl-6,7,8,9-tetrahydro-5H-benzocyclohepten-2-yl)-amine]: the IC50 stood at 1.55 nM at human JAK2 and 671 nM at human FAK.
As for `CCCOc1ccc(Cl)cc1-c1cccn2nc(Nc3ccc4c(c3)CCN(CC(=O)N(C)C)CC4)nc12` [Example 308, 2-{7-[8-(5-Chloro-2-propoxy-phenyl]-[1,2,4]triazolo[1,5a]pyridine-2-ylamino]1,2,4,5-tetrahydro-benzo[d]azepin-3-yl)-N,N-dimethyl-acetamide], the results for the half-maximal inhibitory concentration (IC50) at human JAK2 and at human FAK were 365 nM and 946 nM, respectively.
Consider `CN(C)C(=O)CN1CCc2ccc(Nc3nc4c(-c5cc(S(C)(=O)=O)ccc5OCC(F)F)cccn4n3)cc2CC1` [Example 373, 2-(7-{8-[2-(2,2-Difluoro-ethoxy)-5-methanesulfonyl-phenyl]-[1,2,4]triazolo[1,5-a]pyridin-2-ylamino}-1,2,4,5-tetrahydro-3-benzazepin-3-yl)-N,N-dimethyl-acetamide], for which the IC50 on human JAK2 was 505 nM; at human FAK it was 10000 nM.
With `CCOc1ccc(Cl)cc1-c1cccn2nc(Nc3ccc4c(c3)CCNCC4)nc12` [Example 310, [8-(5-Chloro-2-ethoxy-phenyl]-[1,2,4]triazolo[1,5a]pyridine-2-yl]-(2,3,4,5-tetrahydro-benzo[d]azepin-7-yl)-amine], the half-maximal inhibitory concentration (IC50) was 33.4 nM at human JAK2 and 1230 nM on human FAK.
As for `CN(C)C(=O)N1CCc2ccc(Nc3nc4c(-c5cc(Cl)ccc5OCC(F)F)cccn4n3)cc2CC1` [Example 382, 7-{8-[5-Chloro-2-(2,2-difluoro-ethoxy)-phenyl]-[1,2,4]triazolo[1,5-a]pyridin-2-ylamino}-1,2,4,5-tetrahydro-3-benzazepine-3-carboxylic acid dimethylamide], the IC50 was 198 nM at human JAK2 and 2000 nM on human FAK.
For `CN1CCC(c2ccc(Nc3nc4c(NCc5ccccc5S(C)(=O)=O)cccn4n3)cc2)CC1` [Example 140, N(8)-(2-Methanesulfonyl-benzyl)-N(2)-[4-(1-methyl-piperidin-4-yl)-phenyl]-[1,2,4]triazolo[1,5-a]pyridine-2,8-diamine], the IC50 came out at 22.6 nM on human JAK2 and 124 nM at human FAK.
For the molecule `CN1CCC(c2cccc(Nc3nc4c(-c5ccccc5N(C)S(C)(=O)=O)cccn4n3)c2)CC1` [Example 130, N-Methyl-N-(2-{2-[3-(1-methyl-piperidin-4-yl)-phenylamino]-[1,2,4]triazolo[1,5-a]pyridin-8-yl}-phenyl)-methanesulfonamide], the IC50 stood at 1200 nM on human JAK2 and 3000 nM on human FAK.
In the case of `CN(c1cccc(-c2cccn3nc(Nc4ccc(OCCN5CCCC5)cc4)nc23)c1)S(C)(=O)=O` [Example 128, N-Methyl-N-(3-{2-[4-(2-pyrrolidin-1-yl-ethoxy)-phenylamino]-[1,2,4]triazolo[1,5-a]pyridin-8-yl}-phenyl)-methanesulfonamide], the IC50 on human JAK2 was 34 nM; on human FAK, 2310 nM.
Take `CS(=O)(=O)CCN1CCc2ccc(Nc3nc4c(-c5cc(C(F)(F)F)ccc5Cl)cccn4n3)cc2CC1` [Example 268, [8-(2-Chloro-5-trifluoromethyl-phenyl)-[1,2,4]triazolo[1,5-a]pyridin-2-yl]-[3-(2-methanesulfonyl-ethyl)-2,3,4,5-tetrahydro-1H-benzo[d]azopin-7-yl]-amine]: the 50% inhibitory concentration (IC50) at human JAK2 is 16.8 nM; on human FAK, 999 nM.
`CC(C)S(=O)(=O)c1ccc(-c2cccn3nc(Nc4ccc(N5CCN(C)CC5)cc4)nc23)cc1` [Example 52, [4-(4-Methyl-piperazin-1-yl)-phenyl]-{8-[4-(propane-2-sulfonyl)-phenyl]-[1,2,4]triazolo[1,5-a]pyridin-2-yl}-amine]: the IC50 at human JAK2 was 2.1 nM; at human FAK, 306 nM.
In the case of `Cc1ccc(-c2cccn3nc(Nc4ccc5c(c4)CCNCC5)nc23)c(OCC(C)C)c1` [Example 296, [8-(2-Isobutoxy-4-methyl-phenyl]-[1,2,4]triazolo[1,5a]pyridine-2-yl]-(2,3,4,5-tetrahydro-benzo[d]azepin-7-yl)-amine], the half-maximal inhibitory concentration (IC50) at human JAK2 is 2800 nM; at human FAK it was 3000 nM.
For `COc1ccc(C(F)(F)F)cc1-c1cccn2nc(Nc3ccc(OCCN4CCCC4)cc3)nc12` [Example 259, [8-(2-Methoxy-5-trifluoromethyl-phenyl)-[1,2,4]triazolo[1,5-a]pyridin-2-yl]-[4-(2-pyrrolidin-1-yl-ethoxy)-phenyl]-amine], the IC50 stood at 73.7 nM on human JAK2 and 3390 nM at human FAK.
For `CS(=O)(=O)c1ccc(-c2cccn3nc(Nc4ccc(N5CCOCC5)cc4)nc23)cc1` [Example 4, [8-(4-Methanesulfonyl-phenyl)-[1,2,4]triazolo[1,5-a]pyridin-2-yl]-(4-morpholin-4-yl-phenyl)-amine], in that order: 0.9 nM and 461 nM.
For `CS(=O)(=O)c1ccc(-c2cccn3nc(Nc4cccc(S(C)(=O)=O)c4)nc23)cc1` [Example 113, (3-Methanesulfonyl-phenyl)-[8-(4-methanesulfonyl-phenyl)-[1,2,4]triazolo[1,5-a]pyridin-2-yl]-amine], in that order: 5.57 nM and 693 nM.
`COc1ccc(CNc2cccn3nc(Nc4ccc(N5CCN(C)CC5)cc4)nc23)cc1` [Example 391, N(8)-(4-Methoxy-benzyl)-N(2)-[4-(4-methyl-piperazin-1-yl)-phenyl]-[1,2,4]triazolo[1,5-a]pyridine-2,8-diamine]: the IC50 at human JAK2 turned out to be 3020 nM; on human FAK, 10000 nM.
Turning to `CCOc1ccccc1-c1cccn2nc(Nc3ccc4c(c3)CCN(CCS(C)(=O)=O)CC4)nc12` [Example 245], the concentration for half-maximal inhibition (IC50) at human JAK2 worked out at 70 nM; on human FAK, 10000 nM.
Regarding `COc1ccc(C(F)(F)F)cc1-c1cccn2nc(Nc3ccc(N4CCN(C)CC4)cc3)nc12` [Example 254, [8-(2-Methoxy-5-trifluoromethyl-phenyl)-[1,2,4]triazolo[1,5-a]pyridin-2-yl]-[4-(4-methyl-piperazine-1-yl)-phenyl]-amine], the half-maximal inhibitory concentration (IC50) is 31.3 nM at human JAK2 and 1080 nM at human FAK.
As to `CN1CCN(c2ccc(Nc3nc4c(-c5ccc(S(C)(=O)=O)cc5)cccn4n3)cc2)CC1` [Example 32, [8-(4-Methanesulfonyl-phenyl)-[1,2,4]triazolo[1,5-a]pyridin-2-yl]-[4-(4-methyl-piperazin-1-yl)-phenyl]-amine], the 50% inhibitory concentration (IC50) on human JAK2 is 2.4 nM; at human FAK, 410 nM.
The matching figures for `CN1CCN(c2cccc(Nc3nc4c(-c5cnn(-c6ccc(F)cc6)c5)cccn4n3)c2)CC1` [Example 288, {8-[1-(4-Fluoro-phenyl)-1H-pyrazol-4-yl]-[1,2,4]triazolo[1,5-a]pyridine-2-yl}-[3-(4-methyl-piperazin-1-yl)-phenyl]-amine]: 5.64 nM and 3000 nM.
